Assays:
[1] = Stability on keratinocyte cultures; type: in vitro ADME, human; conditions: 2 μM, human neonatal keratinocyte culture, kinetics over 24 hours, LC/MS/MS; read-out: half-life time (t1/2) (converted)
Description: (§1) The stability on keratinocyte cultures is evaluated using human neonatal keratinocytes (Cell'N Tech) cultured in a 75 cm^2 flask and detached at 90-100% of confluence with vegetable trypsin (trypLE GIBCO). The compound of formula (I) was tested at 2 μM in the medium CNT-057 (Cell'N Tech) supplemented with 0.1% pluronic acid in 24-well plates. The final DMSO concentration is 0.1%. Degradation kinetics are performed with a Tecan EVO robot over 24 hours. The samples taken are then assayed by LC/MS/MS (Micromass) in comparison with a calibration range of the test product, prepared under the same conditions as the samples (⅓ culture medium and ⅔ methanol). The chromatographic conditions are optimized for each product. An assay of the appearance of metronidazole is also performed using these same samples.

[2] = system: human neonatal keratinocytes; assay: Stability on keratinocyte cultures; type: in vitro ADME; conditions: human keratinocyte cultures
Description: as §1

[3] = system: oedema induced by arachidonic acid (AA) on mouse ear; assay: Model of acute inflammation on mouse ear: arachidonic acid-induced oedema; type: in vivo; conditions: for IC50 (concentration at which 50% inhibition of the oedema induced by AA alone is observed): topical on mouse ear, oedema measured 1 hour after application, % weight per volume of solution
Description: The anti-inflammatory activities of the compound of formula (I) in racemic form, of the S enantiomer of the compound of formula (I), of metronidazole and of flurbiprofen were measured in an in vivo test performed on a mouse model. This model consists in inducing inflammation of the mouse ear with a single application of arachidonic acid (AA). Female Balb/c ByJlco mice are used. The oedema is induced by applying to the mouse's ear 20 μL of AA dissolved to 4% in a 1/1 THF/methanol mixture. The anti-inflammatory activities of the S enantiomer of the compound of formula (I), of the compound of formula (I) in racemic form, of metronidazole and of flurbiprofen were evaluated after topical application onto the inner face of the mouse's ear of 20 μL of a solution of the compound in a 1/1 THF/methanol mixture containing 4% AA.
Solutions containing 0.01%; 0.03%; 0.1%; 0.3%; 1% and 2% of the test compound are thus prepared. The percentages correspond to the weight of the test compound per volume of solution. The oedema is evaluated, 1 hour after application, by measuring the thickness of the ear using an Oditest® micrometer. The oedema induced by AA alone is evaluated, 1 hour after application, by measuring the thickness of the ear using an Oditest® micrometer. It is evaluated relative to a group comprising only the vehicle (1/1 THF/methanol).
The inhibition of the oedema is expressed as a percentage of reduction, by the test molecule and at the test concentration, of the oedema induced by AA alone.
The IC50 corresponds to the concentration (or dose) at which 50% inhibition of the oedema induced by AA alone is observed.

[4] = system: oedema induced by TPA (phorbol 12-myristate-13-acetate) on mouse ear; assay: Model of acute inflammation on mouse ear: oedema induced by TPA; type: in vivo; conditions: for IC50 (concentration at which 50% inhibition of the oedema induced by TPA alone is observed): applied with 0.01% TPA in ethanol, oedema measured 6 hours after application; for inhibition of the TPA-induced inflammation: concentration of 1%, TPA test in mice
Description: The anti-inflammatory activities of the compound of formula (I) in racemic form, of metronidazole and of flurbiprofen (racemic) were measured in an in vivo test performed on a mouse model.
The model used is the model of mouse ear inflammation induced by a single application of TPA (phorbol 12-myristate-13-acetate). Female Balb/c ByJlco mice are used.
The oedema is induced by applying to the ear 20 μl of 0.01% TPA dissolved in ethanol.
The racemic compound of formula (I) is dissolved, at the desired concentration, in the 0.01% TPA solution and thus applied to a group of mice at the same time as the TPA.
Similarly, flurbiprofen (racemic) is dissolved, at the desired concentration, in the 0.01% TPA solution and thus applied to another group of mice at the same time as the TPA.
Finally, metronidazole is dissolved, at the desired concentration, in the 0.01% TPA solution and thus applied to another group of mice at the same time as the TPA.
The oedema is evaluated, 6 hours after application, by measuring the thickness of the ear using an Oditest® micrometer.
The TPA-induced oedema is evaluated relative to the ethanol vehicle group. The inhibition, with the racemic compound of formula (I), with flurbiprofen (racemic) or with metronidazole, of the oedema induced by TPA alone is expressed by the IC50.
The IC50 corresponds to the concentration (or dose) at which 50% inhibition of the oedema induced by TPA alone is observed.

Which half-life at 2 μM [1] does the source give for `Cc1ncc([N+](=O)[O-])n1CCOC(=O)C(C)c1ccc(-c2ccccc2)c(F)c1` (racemic) [2-(2-methyl-5-nitroimidazol-1-yl)ethyl 2-(2-fluorobiphenyl-4-yl)propionate] here?
The half-life at 2 μM was 360 min.

What about the “hydrolysis / stability of the ester on keratinocyte cultures” value (from here on “hydrolysis / stability of the ester”) [2] of the same molecule?
The value was “specifically cleaved in keratinocytes”.

What about the “anti-inflammatory activity compared with flurbiprofen” value ([3]; dose of 1%, AA-induced mouse ear oedema, result in words) of the same molecule?
The value was “equivalent to that of flurbiprofen (racemic) at the 0.1% dose”.

And the “IC50 (concentration at which 50% inhibition of the oedema induced by TPA alone is observed)” value [4]?
The value was 0.22%.

With `CC(C(=O)O)c1ccc(-c2ccccc2)c(F)c1` (racemic) [flurbiprofen (racemic), flurbiprofen] as the molecule, how does the “inhibition of the oedema induced by AA alone” value ([3]; dose of 0.1%, topical, 1 hour after application) read?
The value was 60%.

What about the “IC50 (concentration at which 50% inhibition of the oedema induced by AA alone is observed)” value [3] of the same molecule?
Its value is 0.037%.

And the “IC50 (concentration at which 50% inhibition of the oedema induced by TPA alone is observed)” value [4]?
Its value is 0.22%.

With `Cc1ncc([N+](=O)[O-])n1CCOC(=O)[C@H](C)c1ccc(-c2ccccc2)c(F)c1` [2-(2-methyl-5-nitroimidazol-1-yl)ethyl (R)-2-(2-fluorobiphenyl-4-yl)propionate] as the molecule, how does the “inhibition of the TPA-induced inflammation” value [4] read?
Its value is 85%.

With `Cc1ncc([N+](=O)[O-])n1CCOC(=O)[C@@H](C)c1ccc(-c2ccccc2)c(F)c1` [2-(2-methyl-5-nitroimidazol-1-yl)ethyl (S)-2-(2-fluorobiphenyl-4-yl)propionate] as the molecule, how does the half-life at 2 μM [1] read?
Its half-life at 2 μM is 1080 min.

And the “IC50 (concentration at which 50% inhibition of the oedema induced by AA alone is observed)” value [3]?
Its value is 1%.

And the “inhibition of the TPA-induced inflammation” value [4]?
Its value is 95%.

For `C[C@@H](C(=O)O)c1ccc(-c2ccccc2)c(F)c1` [(R)-flurbiprofen], which “inhibition of the TPA-induced inflammation” value [4] is on record?
The value was 80%.

Which “inhibition of the TPA-induced inflammation” value [4] does the source give for `C[C@H](C(=O)O)c1ccc(-c2ccccc2)c(F)c1` [(S)-flurbiprofen] here?
The value was 70%.

Which “hydrolysis / stability of the ester” value [2] does the source give for `Cc1ncc([N+](=O)[O-])n1CCOC(=O)c1cc(-c2ccc(F)cc2F)ccc1O` [metronidazole ester with diflunisal] here?
Its value is “do not become hydrolysed”.

For `COc1ccc2c(c1)c(CC(=O)OCCn1c([N+](=O)[O-])cnc1C)c(C)n2C(=O)c1ccc(Cl)cc1` [metronidazole ester with indomethacin], which “hydrolysis / stability of the ester” value [2] is on record?
The value was “do not become hydrolysed”.

With `Cc1ncc([N+](=O)[O-])n1CCOC(=O)C1CCn2c(C(=O)c3ccccc3)ccc21` (stereo not shown) [metronidazole ester with ketorolac] as the molecule, how does the “hydrolysis / stability of the ester” value [2] read?
The value was “do not become hydrolysed”.

Which “hydrolysis / stability of the ester” value [2] does the source give for `Cc1ncc([N+](=O)[O-])n1CCOC(=O)c1cccnc1Nc1cccc(C(F)(F)F)c1` [metronidazole ester with niflumic acid] here?
The value was “do not become hydrolysed”.

Which results are given for `Cc1ncc([N+](=O)[O-])n1CCO` [metronidazole]?
anti-inflammatory activity ([3]; AA-induced mouse ear oedema, result in words): no anti-inflammatory activity; anti-inflammatory activity ([4]; TPA-induced mouse ear oedema, result in words): no anti-inflammatory activity
